Laboratory results published in patent publication US8003687B2, “Esters of compounds in the leptomycin family” (Kosan Biosciences Incorporated, priority 2005, dated 2011).
Read-outs that look alike come from different tables or passages of the source.

How the values were obtained:
[1] = tested on: MCF-7; assay: inhibition of tumor cell proliferation, MCF-7; type: cell-based, human
Description: (§1) The biological activity of compounds of this invention was evaluated by measuring their inhibitory effect on the proliferation of various tumor cell lines. MCF-7, A549, and SKOV-3 are human breast, lung, and ovary cancer cell lines, respectively. NCI/ADR is a multi-drug resistant breast cancer cell line. CCRF-CEM and CCRF-CEM/PTX are human leukemia cell lines, the latter being a paclitaxel-resistant subline.

[2] = tested on: NCI/ADR; assay: inhibition of tumor cell proliferation, NCI/ADR; type: cell-based; settings: read-out: Tumor Cell Line (IC50, nM) NCI/ADR
Description: as §1

[3] = tested on: A549; assay: inhibition of tumor cell proliferation, A549; type: cell-based, human
Description: as §1

[4] = tested on: SKOV-3; assay: inhibition of tumor cell proliferation, SKOV-3; type: cell-based, human
Description: as §1

[5] = tested on: CCRF-CEM; assay: inhibition of tumor cell proliferation, CCRF-CEM; type: cell-based, human; settings: read-out: Tumor Cell Line (IC50, nM) CCRF-CEM
Description: as §1

[6] = tested on: CCRF-CEM/PTX; assay: inhibition of tumor cell proliferation, CCRF-CEM/PTX; type: cell-based, human; settings: read-out: Tumor Cell Line (IC50, nM) CCRF-CEM/PTX
Description: as §1

[7] = Homo sapiens, MCF7, read-out: Tumor Cell Line (IC50, nM) MCF-7
[8] = Homo sapiens, A549, read-out: Tumor Cell Line (IC50, nM) A549
[9] = Homo sapiens, SK-OV-3, read-out: Tumor Cell Line (IC50, nM) SKOV-3

Question: Which IC50 [1, 7] does the source give for `CCC(=C/[C@H](C)C/C=C/C(C)=C/[C@@H](C)C(=O)[C@@H](C)[C@H](O)[C@@H](C)C/C(C)=C/C(=O)OCc1ccccc1)/C=C/[C@@H]1OC(=O)C=C[C@@H]1C` [Compound 1] here?
Answer: 3 nM

Question: And the IC50 ([2]; Homo sapiens, NCI/ADR-RES)?
Answer: 38 nM

Question: And the IC50 [3, 8]?
Answer: 5.3 nM

Question: What about the IC50 [4, 9] of the same compound?
Answer: 17 nM

Question: And the IC50 ([5]; Homo sapiens, CCRF-CEM)?
Answer: 2.7 nM

Question: What about the IC50 ([6]; Homo sapiens, CCRF-CEM) of the same compound?
Answer: 4.8 nM

Question: `CCC(=C/[C@H](C)C/C=C/C(C)=C/[C@@H](C)C(=O)[C@@H](C)[C@H](O)[C@@H](C)C/C(C)=C/C(=O)OCC(=O)OC)/C=C/[C@@H]1OC(=O)C=C[C@@H]1C` [Compound 2] was tested. Which IC50 [1, 7] did it give?
Answer: 0.33 nM

Question: What about the IC50 ([2]; Homo sapiens, NCI/ADR-RES) of the same compound?
Answer: 5.2 nM

Question: What about the IC50 [3, 8] of the same compound?
Answer: 2.3 nM

Question: And the IC50 [4, 9]?
Answer: 5.3 nM

Question: And the IC50 ([5]; Homo sapiens, CCRF-CEM)?
Answer: 1.1 nM

Question: And the IC50 ([6]; Homo sapiens, CCRF-CEM)?
Answer: 1 nM

Question: For `CCC(=C/[C@H](C)C/C=C/C(C)=C/[C@@H](C)C(=O)[C@@H](C)[C@H](O)[C@@H](C)C/C(C)=C/C(=O)OCc1cccc2cccnc12)/C=C/[C@@H]1OC(=O)C=C[C@@H]1C` [Compound 3], which IC50 [1, 7] is on record?
Answer: 3.7 nM

Question: And the IC50 ([2]; Homo sapiens, NCI/ADR-RES)?
Answer: 270 nM

Question: And the IC50 [3, 8]?
Answer: 5.3 nM

Question: What about the IC50 [4, 9] of the same compound?
Answer: 24 nM

Question: What about the IC50 ([5]; Homo sapiens, CCRF-CEM) of the same compound?
Answer: 5.6 nM

Question: What about the IC50 ([6]; Homo sapiens, CCRF-CEM) of the same compound?
Answer: 14 nM

Question: For `CCC(=C/[C@H](C)C/C=C/C(C)=C/[C@@H](C)C(=O)[C@@H](C)[C@H](O)[C@@H](C)C/C(C)=C/C(=O)O)/C=C/[C@@H]1OC(=O)C=C[C@@H]1C` [LMB, Leptomycin B, reference compound], which IC50 ([1]; MCF7, human breast cancer cell line, read-out: Tumor Cell Line (IC50, nM) MCF-7) is on record?
Answer: 0.29 nM

Question: And the IC50 ([2]; Homo sapiens, NCI/ADR-RES, multi-drug resistant breast cancer cell line)?
Answer: 1 nM

Question: What about the IC50 ([3]; A549, human lung cancer cell line, read-out: Tumor Cell Line (IC50, nM) A549) of the same compound?
Answer: 0.3 nM

Question: What about the IC50 ([4]; SK-OV-3, human ovary cancer cell line, read-out: Tumor Cell Line (IC50, nM) SKOV-3) of the same compound?
Answer: 1.5 nM

Question: What about the IC50 ([5]; CCRF-CEM, human leukemia cell line) of the same compound?
Answer: 0.65 nM

Question: What about the IC50 ([6]; CCRF-CEM, human leukemia cell line, paclitaxel-resistant subline) of the same compound?
Answer: 0.41 nM

Question: How did the IC50 ([1]; human breast cancer cell line, read-out: Tumor Cell Line (IC50, nM) MCF-7) turn out when “LMB methyl ester [Compound 4, reference compound]” was run?
Answer: 1.9 nM

Question: What about the IC50 ([2]; multi-drug resistant breast cancer cell line) of the same compound?
Answer: 13.1 nM

Question: And the IC50 ([3]; human lung cancer cell line, read-out: Tumor Cell Line (IC50, nM) A549)?
Answer: 2.4 nM

Question: And the IC50 ([4]; human ovary cancer cell line, read-out: Tumor Cell Line (IC50, nM) SKOV-3)?
Answer: 8.2 nM

Question: And the IC50 ([5]; human leukemia cell line)?
Answer: 0.55 nM

Question: What about the IC50 ([6]; human leukemia cell line, paclitaxel-resistant subline) of the same compound?
Answer: 0.63 nM
